Values joined by “and” are separate entries in the source; they are usually repeats but may differ in a detail not shown here. Identical values can stand only once. Where a SMILES comes first, the peptide text is derived from it.
Columns and labels:
Format in all cases: biochemical
collagenase I (MMP-1) = test: Collagenase activity assay, collagen thin film (collagen type II substrate); conditions: for Collagenase (% Inhibition): collagen thin film, collagen type II, peptide concentration not given
Procedure: Collagenase activity was assayed by collagen thin film method using collagen type II as substrate. IC50 values were graphically determined from the inhibition curves, constructed on the basis of the in vitro results of collagenase assays. Results are the mean±SD of 3 separate experiments done in triplicates. (•), P-NT.II; (□), PIP [59-67] dimer; (Δ), PIP [59-67} monomer; (∇), LY 315920.
Collagenase activity assay: Using collagen thin film as the substrate, a quantitative method was established to measure the enzymatic activity of the MMPs (principally collagenase). Collagen type II (Sigma) solution (4 μL, 3 mg/mL in 0.012 N HCl) was added to each well of 96-well plates and precipitated by slowly increasing the pH with 4 μL of H2O and 8 μL of 0.012 N NaOH. The plate was dried at 23° C. for 24 hr, washed with H2O, and dried again at 23° C., resulting in a thin film containing 12 μg of collagen that was tightly bound to the bottom of the wells. Enzymatic reactions of the collagenase I (with and without peptide inhibitors) against the collagen films were carried out in quadruplicate at 24° C. for 16 h. The digested portion of the film was washed away, while the undigested portion was fixed for 3 h with 0.1% Coomassie brilliant blue R in 10% acetic acid and 45% methanol, and the wells washed and dried.

MMP-2 = biological target: T1, MMP-2 (Homo sapiens, UniProt P08253); test: Gelatin zymography of human synovial fluid pre-incubated with inhibitors; conditions: 5 or 10 μM, pre-incubated 37° C. 1 h
T1 construct: from tissue; host or cells: human synovial fluid
T1 sequence (P08253 110-660): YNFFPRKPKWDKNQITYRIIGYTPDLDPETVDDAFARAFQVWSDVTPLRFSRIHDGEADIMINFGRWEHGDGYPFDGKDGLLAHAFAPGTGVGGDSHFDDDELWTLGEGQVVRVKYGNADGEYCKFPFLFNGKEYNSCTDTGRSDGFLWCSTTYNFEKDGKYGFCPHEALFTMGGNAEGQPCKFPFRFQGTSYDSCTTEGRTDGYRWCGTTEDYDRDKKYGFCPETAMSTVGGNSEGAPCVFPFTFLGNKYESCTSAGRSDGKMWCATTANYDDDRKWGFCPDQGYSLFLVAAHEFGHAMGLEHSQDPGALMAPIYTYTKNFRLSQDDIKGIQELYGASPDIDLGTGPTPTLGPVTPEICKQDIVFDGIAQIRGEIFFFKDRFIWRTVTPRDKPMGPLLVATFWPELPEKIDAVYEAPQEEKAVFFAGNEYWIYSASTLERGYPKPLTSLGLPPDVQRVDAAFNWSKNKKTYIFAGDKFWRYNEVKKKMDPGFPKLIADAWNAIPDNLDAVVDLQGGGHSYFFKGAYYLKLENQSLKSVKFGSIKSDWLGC
Procedure: (A) Samples containing human synovial fluid (5 μL) and 5 or 10 μM of peptides were pre-incubated at 37° C. for 1 h in Tris-HCl buffer prior to electrophoresis on 10% SDS-PAGE gel containing gelatin (0.1%). […] (B) The mean density (OD/mm2)±SD (n=3), representing MMP-2 activity, obtained by scanning the zymograms using the GS-710 calibrated imaging densitometer (Bio Rad, USA).
Gelatin zymography: human synovial fluid, purified human recombinant MMP-2 and -9 or APMA-activated concentrated culture supernatant samples (10 μL) was mixed (1:1) with Laemmli sample buffer, loaded on 4% acrylamide stacking gel and electrophoresed (120 V) at 4° C. on a 10% acrylamide-resolving minigel containing 0.1% gelatin. After electrophoresis for 1 h, the gels were soaked in 2.5% Triton X-100 on a shaker for 1 h, changing the solution after 30 min, to eliminate SDS. After overnight incubation in zymogen activation buffer [50 mM Tris-HCl, pH 7.5, containing 10 mM CaCl2 and 5 mM ZnCl2] at 37° C., the gels were rinsed in distilled water, and stained for 3 hr with […], after which clear bands of digested gelatin were clearly visible. The gels were briefly rinsed in distilled water and scanned by the Bio-Rad GS-710 Calibrated Imaging Densitometer.

[1] = biological target: T2, purified human synovial sPLA2 (human Type IIA sPLA2) (Homo sapiens, UniProt P14555); test: sPLA2 inhibition, 3H-arachidonate-labelled E. coli membrane assay; conditions: fixed peptide concentration (5 μM); 3H-labelled E. coli membrane assay; read-out: % Inhibition (mean ± SD)
T2 construct: purchased Cayman Chemicals, USA
T2 sequence (P14555 21-144): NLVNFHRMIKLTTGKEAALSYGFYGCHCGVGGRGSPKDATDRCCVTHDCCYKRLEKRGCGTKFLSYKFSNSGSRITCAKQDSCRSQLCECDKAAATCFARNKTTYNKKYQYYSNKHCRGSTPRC
Procedure: In brief, [^3H] arachidonate-labeled E. coli membranes (0.005 mCi/mL; 5.8 μCi/μmol, NEN) were used as substrate, and 100 mM Tris-HCl—25 mM CaCl2, pH 7.5 solution as an assay buffer. The reaction mixture contained 20 μL of substrate, 0.85 pmole of purified human synovial sPLA2 (human Type IIA sPLA2, Cayman Chemicals, USA), and an increasing concentrations of the family of synthetic peptides derived from the sequence of PIP. The final volume of the reaction mixture was adjusted to 250 μL with an assay buffer. After incubation of the mixture (37° C., 1 h) and termination of the reaction with 750 μL of chilled PBS containing 1% BSA, microfuge tubes containing the samples were centrifuged (10,000 g at 4° C. for 15 min), and 500 μL aliquots of the supernatant taken to measure the amount of [^3H]-labeled arachidonate released from the E. coli membrane using liquid scintillation counting (Multipurpose Scintillation Counter LS 6500; Beckman, USA). As controls, sPLA2 was pre-incubated with the assay buffer alone. All samples, including controls, were performed in triplicate and plotted as the percentage inhibition relative to negative controls.
A sigmoid dose response curve was generated to allow calculation of the IC50 values. All samples were performed in triplicate. Results were analyzed by nonlinear regression with GraphPad Prism (version 2.01) and expressed as the percentage of inhibition relative to control values.

SMILES: CC[C@H](C)[C@H](NC(=O)[C@H](Cc1ccc(O)cc1)NC(=O)[C@@H](NC(=O)CNC(=O)[C@H](CC(=O)O)NC(=O)[C@H](Cc1c[nH]c2ccccc12)NC(=O)[C@@H](NC(=O)[C@H](Cc1c[nH]cn1)NC(=O)[C@@H](NC(=O)[C@H](CC(=O)O)NC(=O)[C@@H](NC(=O)[C@H](CCCNC(=N)N)NC(=O)CNC(=O)[C@@H](N)CC(C)C)C(C)C)[C@@H](C)CC)C(C)C)C(C)C)C(=O)N[C@@H](CCCNC(=N)N)C(=O)NCC(=O)N[C@@H](CCCNC(=N)N)C(=O)O [P-NT.II] (H-LGRVDIHVWDGVYIRGR-OH; N-terminus and C-terminus assumed)
- IC50 (collagenase I (MMP-1); collagen thin film method, FIG. 2, read-out: IC50 (mean±SD), collagenase I (MMP-1)): 8.43 ± 1.17 µM
- Collagenase (% Inhibition) (collagenase I (MMP-1)): 64.2 ± 5.6% and 64.2 ± 5.5%
- MMP-2 gelatinase activity (zymogram densitometry) vs control (MMP-2): did not show any significant difference from the control

SMILES: CC[C@H](C)[C@H](NC(=O)[C@H](CC(=O)O)NC(=O)[C@@H](N)C(C)C)C(=O)N[C@@H](Cc1c[nH]cn1)C(=O)N[C@H](C(=O)N[C@@H](Cc1c[nH]c2ccccc12)C(=O)N[C@@H](CC(=O)O)C(=O)NCC(=O)N[C@H](C(=O)O)C(C)C)C(C)C [PIP [59-67] monomer] (H-VDIHVWDGV-OH; N-terminus and C-terminus assumed)
- Collagenase (% Inhibition) (collagenase I (MMP-1)): 34.2 ± 4.7%
- inhibition at 5 µM [1]: 56.4 ± 3.21%
- MMP-2 gelatinase activity (zymogram densitometry) vs control (MMP-2): did not show any significant difference from the control

Source: patent publication US20070037253A1, “Methods and compositions for treatment of arthritis and cancer” (priority 2003, published 2007)
